Test results reported in patent US8299056B2 (Signal Pharmaceuticals, LLC, priority 2008, dated 2012).

These compounds were tested against T1, Syk (Homo sapiens, UniProt P43405) (assay: Syk HTRF assay). Conditions: IC50 activity level, read-out: Activity Level.
T1 construct: purchased Carna Biosciences
Assay type: biochemical
Summary of the method: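 HTRF kinase assay in HEPES pH 7.6 buffer with MgCl2, DTT and Triton X100; start mix of 87.5 μM ATP and 80 nM biotinylated peptide, 1 h at room temperature. EDTA stop, then Eu-anti-phosphotyrosine/streptavidin-DyLight 647 detection, read as 665/615 nm emission ratio.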

Compared with `OC[C@H]1CC[C@H](Nc2cccc3nc(Nc4ccc(C(F)(F)F)cc4)nn23)CC1` (stereo in doubt) [Example 414, trans-(4-(2-(4-(trifluoromethyl)phenylamino)-[1,2,4]triazolo[1,5-a]pyridin-5-ylamino)cyclohexyl)methanol], `O[C@@H]1CC[C@H](Nc2cccc3nc(Nc4ccc(C(F)(F)F)cc4)nn23)C1` [Example 421, (1R,3S)-3-(2-(4-(trifluoromethyl)phenylamino)-[1,2,4]triazolo[1,5-a]pyridin-5-ylamino)cyclopentanol] is lower in IC50: 500 to 1000 nM for the first, 250 to 500 nM for the second.

First: Cc1noc2cc(Nc3nc4cccc(CC5CCOCC5)n4n3)ccc12 [Example 537, 3-methyl-N-(5-((tetrahydro-2H-pyran-4-yl)methyl)-[1,2,4]triazolo[1,5-a]pyridin-2-yl)benzo[d]isoxazol-6-amine]
Second: O[C@@H]1CCC(Nc2cccc3nc(Nc4ccc(C(F)(F)F)cc4)nn23)C1 (stereo in doubt) [Example 420, (1R,3R)-3-(2-(4-(trifluoromethyl)phenylamino)-[1,2,4]triazolo[1,5-a]pyridin-5-ylamino)cyclopentanol]
The IC50 of the first is higher: 500 to 1000 nM for the first, 250 to 500 nM for the second. The second is the more potent here.

With `O=C1NCc2cc(-c3cccc4nc(Nc5ccccc5)nn34)ccc21` [Example 496, 5-(2-(phenylamino)-[1,2,4]triazolo[1,5-a]pyridin-5-yl)isoindolin-1-one] the IC50 was 250 to 500 nM.

Same assay, conditions: activity levels A-D, read-out: Activity Level (IC50 in the Syk HTRF assay)

Compared with `O=C1c2cc(Nc3nc4cccc(N[C@H]5CC[C@@H](O)CC5)n4n3)ccc2CN1CCO` [Example 206, cis-6-(5-(4-hydroxycyclohexylamino)-[1,2,4]triazolo[1,5-a]pyridin-2-ylamino)-2-(2-hydroxyethyl)isoindolin-1-one], `NC(=O)c1cccc(Nc2nc3cccc(N[C@H]4CC[C@@H](O)CC4)n3n2)c1` [Example 337, cis-3-(5-(4-hydroxycyclohexylamino)-[1,2,4]triazolo[1,5-a]pyridin-2-ylamino)benzamide] is lower in IC50: 1000 to 10000 nM for the first, 250 to 500 nM for the second.

First: CNC(=O)c1ccc(Nc2nc3cccc(NC4CCC(N)CC4)n3n2)cc1 (stereo in doubt) [Example 394, trans-4-(5-(4-aminocyclohexylamino)-[1,2,4]triazolo[1,5-a]pyridin-2-ylamino)-N-methylbenzamide]
Second: Cc1n[nH]c2cc(Nc3nc4cccc(C[C@H]5CC[C@@H](O)CC5)n4n3)ccc12 [Example 239, cis-4-((2-(3-methyl-1H-indazol-6-ylamino)-[1,2,4]triazolo[1,5-a]pyridin-5-yl)methyl)cyclohexanol]
The IC50 of the first is higher: 250 to 500 nM for the first, 0.005 to 250 nM for the second. The second is the more potent here.

`FC(F)(F)c1ccc(Nc2nc3cccc(OC4CCCNC4)n3n2)cc1` (stereo in doubt) [Example 361, (R)-5-(piperidin-3-yloxy)-N-(4-(trifluoromethyl)phenyl)-[1,2,4]triazolo[1,5-a]pyridin-2-amine] and `OC1CCN(Cc2cccc3nc(Nc4ccc(C(F)(F)F)cc4)nn23)C1` (stereo in doubt) [Example 335, (R)-1-((2-(4-(trifluoromethyl)phenylamino)-[1,2,4]triazolo[1,5-a]pyridin-5-yl)methyl)pyrrolidin-3-ol] fall in the same range of IC50: 1000 to 10000 nM for the first, 1000 to 10000 nM for the second.

With `Cc1n[nH]c2cc(Nc3nc4cccc(CN5CCNC(=O)C5)n4n3)ccc12` [Example 235, 4-((2-(3-methyl-1H-indazol-6-ylamino)-[1,2,4]triazolo[1,5-a]pyridin-5-yl)methyl)piperazin-2-one] the IC50 was 0.005 to 250 nM.

Same assay, conditions: read-out: Activity Level (Syk HTRF assay IC50)

`CC1(C)C(=O)Nc2cc(Nc3nc4cccc(CC5CCNCC5)n4n3)ccc21` [Example 138, 3,3-dimethyl-6-(5-(piperidin-4-ylmethyl)-[1,2,4]triazolo[1,5-a]pyridin-2-ylamino)indolin-2-one] and `CC1(C)C(=O)Nc2cc(Nc3nc4cccc(N[C@H]5CC[C@H](O)CC5)n4n3)ccc21` (stereo in doubt) [Example 175, trans-6-(5-(4-hydroxycyclohexylamino)-[1,2,4]triazolo[1,5-a]pyridin-2-ylamino)-3,3-dimethylindolin-2-one] fall in the same range of IC50: 0.005 to 250 nM for the first, 0.005 to 250 nM for the second.

`Cc1n[nH]c2cc(Nc3nc4cccc(NC5CCOC5)n4n3)ccc12` (stereo in doubt) [Example 167, (R)-N^2-(3-methyl-1H-indazol-6-yl)-N^5-(tetrahydrofuran-3-yl)-[1,2,4]triazolo[1,5-a]pyridin-2,5-diamine] and `CN1C(=O)C(C)(C)c2ccc(Nc3nc4cccc(N[C@H]5CC[C@](C)(O)CC5)n4n3)cc21` [compound 110] fall in the same range of IC50: 0.005 to 250 nM for the first, 0.005 to 250 nM for the second.

First: CN1C(=O)C(C)(C)c2ccc(Nc3nc4cccc(CC5CCOCC5)n4n3)cc21 [Example 143, 1,3,3-trimethyl-6-(5-((tetrahydro-2H-pyran-4-yl)methyl)-[1,2,4]triazolo[1,5-a]pyridin-2-ylamino)indolin-2-one]
Second: NCc1ccc(Nc2nc3cccc(-c4cccc(O)c4)n3n2)cc1 [compound 24, 3-(2-(4-(aminomethyl)phenylamino)-[1,2,4]triazolo[1,5-a]pyridin-5-yl)phenol]
The IC50 of the first is lower: 0.005 to 250 nM for the first, 250 to 500 nM for the second.

`Nc1cccc(-c2cccc3nc(Nc4ccccc4)nn23)c1` [Example 87] and `O=C(O)c1ccc(Nc2nc3cccc(-c4cccc(O)c4)n3n2)cc1` [compound 25, 4-(5-(3-hydroxyphenyl)-[1,2,4]triazolo[1,5-a]pyridin-2-ylamino)benzoic acid] fall in the same range of IC50: 0.005 to 250 nM for the first, 0.005 to 250 nM for the second.
